From patent US11597748B2, “Peptide having cytoprotective effect against environmental pollutant and use thereof” (CAREGEN CO., LTD., priority 2017, dated 2023)
No end group written: not given here.

Legend:
[1] = test system: CYP1A1, TNF-a, IL-6, IL-1b, COX-2 mRNA; assay: RT-PCR of CYP1A1 and inflammatory molecules induced by TCDD; assay type: cell-based, human; settings: HaCaT cells; 10 nM TCDD; 50 μM peptide; 6 hours or 24 hours
Procedure: (§1) HaCaT cells, human keratinocyte cells, were seeded on a 6-well plate at a density of 3×10^5 cells/well and cultured overnight. Subsequently, 10 nM of TCDD and 50 μM of the peptide consisting of an amino acid sequence of SEQ ID NO: 1, 2, or 3 were added to the culture medium. After 30 minutes of reaction, the cells were treated for 6 hours or 24 hours and collected to separate RNA therefrom. After quantifying RNA, cDNA was synthesized using a cDNA synthesis kit (Intron, Korea). Then, polymerase chain reaction (PCR) was performed using a PCR PreMix kit (Intron, Korea) and a primer for each of CYP1A1, TNF-a, IL-6, IL-1 b, and COX-2 shown in Table 4. Then, by running the resultant on a 5% agarose gel, the expression levels of mRNA of the growth factors were compared under the conditions of treating the respective samples, and the results are shown in FIGS. 5A to 5C.

[2] = test system: CYP1A1, TNF-a, IL-6, IL-1b, COX-2 mRNA; assay: RT-PCR of CYP1A1 and inflammatory molecules induced by particulate matter; assay type: cell-based, human; settings: HaCaT cells; 10 nM particulate matter; 50 μM peptide; 6 hours or 24 hours
Procedure: as §1, with “particulate matter (PM)” for “TCDD”, “PCR” for “polymerase chain reaction (PCR)”, “IL-1b,” for “IL-1 b,”, “5.” for “4.”, “7A” for “5A”, “7C.” for “5C.”

Substance	effect on expressions of CYP1A1 and inflammatory factors induced by TCDD (in words) [1]	effect on expressions of CYP1A1 and inflammatory factors induced by particulate matter (in words) [2]
KWGGGRY [SEQ ID NO: 1, KWGGGRY]	inhibiting expressions of CYP1A1 and various inflammatory factors induced by TCDD	inhibiting expressions of CYP1 A1 and various inflammatory factors induced by particulate matter
ILGRWCG [SEQ ID NO: 2, ILGRWCG]	inhibiting expressions of CYP1A1 and various inflammatory factors induced by TCDD	inhibiting expressions of CYP1 A1 and various inflammatory factors induced by particulate matter
DVENTS [SEQ ID NO: 3, DVENTS]	inhibiting expressions of CYP1A1 and various inflammatory factors induced by TCDD	inhibiting expressions of CYP1 A1 and various inflammatory factors induced by particulate matter
